From patent US20170253601A1, “Substituted Pyrrolidine Compounds” (EPIZYME, INC., priority 2014, published 2017)

Target: T1, SMYD2 (Homo sapiens, UniProt Q9NRG4)
T1 construct: Full length SMYD2 (NP 064582.2) was cloned; His6 (N, cleaved yes); FLAG (N); made in house; host or cells: Sf9 insect cells
Assay: SMYD2 Biochemical Assay (3H-SAM, biotinylated peptide substrate, Flashplate)
Settings: IC50 values are an average of n = 1 to n = 50; read-out: SMYD2 Biochem IC50 (μM)*
Method in brief: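 Methyltransferase activity tracked as 3H transfer from 10 nM 3H-SAM to 60 nM biotinylated peptide, counted after streptavidin Flashplate capture and normalised to DMSO and 1000 uM SAH controls. Enzyme: 1.5 nM full-length Sf9-expressed SMYD2, 30 min compound pre-incubation at room temperature, in Bicine pH 7.6 buffer with 2% DMSO; reactions quenched with 600 uM unlabelled SAM; IC50 from 3- or 4-parameter fit.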

T1 sequence (Q9NRG4 whole entry): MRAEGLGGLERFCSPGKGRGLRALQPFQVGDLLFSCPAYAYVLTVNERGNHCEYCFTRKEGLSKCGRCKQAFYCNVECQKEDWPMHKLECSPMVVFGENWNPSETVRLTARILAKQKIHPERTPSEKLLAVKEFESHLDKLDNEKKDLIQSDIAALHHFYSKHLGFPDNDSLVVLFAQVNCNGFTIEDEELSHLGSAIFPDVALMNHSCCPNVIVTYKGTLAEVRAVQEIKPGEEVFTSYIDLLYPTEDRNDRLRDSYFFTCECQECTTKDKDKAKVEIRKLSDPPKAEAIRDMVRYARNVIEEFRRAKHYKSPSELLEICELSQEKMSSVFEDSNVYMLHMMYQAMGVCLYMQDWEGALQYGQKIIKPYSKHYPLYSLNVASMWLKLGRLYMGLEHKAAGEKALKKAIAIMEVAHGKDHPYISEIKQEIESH

SMILES | IC50
CN1C[C@H](NC(=O)c2cc(C3CC3)on2)[C@@H](C2CC2)C1 (racemic) [compound 141, (±)-trans-5-cyclopropyl-N-[4-cyclopropyl-1-methylpyrrolidin-3-yl]-1,2-oxazole-3-carboxamide] | > 50 µM
CN1C[C@H](NC(=O)c2cc(C3CC3)on2)[C@@H](C(C)(C)C)C1 (racemic) [compound 144, (±)-trans-N-[4-tert-butyl-1-methylpyrrolidin-3-yl]-5-cyclopropyl-1,2-oxazole-3-carboxamide] | > 50 µM
CC(C)N1C[C@H](NC(=O)c2cc(C3CC3)on2)[C@@H](C(C)(C)C)C1 (racemic) [compound 146, (±)-trans-N-[4-tert-butyl-1-(propan-2-yl)pyrrolidin-3-yl]-5-cyclopropyl-1,2-oxazole-3-carboxamide] | > 50 µM
CCC[C@H]1CN(C)C[C@@H]1NC(=O)c1cc(C2CC2)on1 (racemic) [compound 150, (±)-trans-5-cyclopropyl-N-[1-methyl-4-propylpyrrolidin-3-yl]-1,2-oxazole-3-carboxamide] | 44.9 µM
CCC[C@H]1CN(C(C)C)C[C@@H]1NC(=O)c1cc(C2CC2)on1 (racemic) [compound 151, (±)-trans-5-cyclopropyl-N-[1-(propan-2-yl)-4-propylpyrrolidin-3-yl]-1,2-oxazole-3-carboxamide] | > 50 µM
CC(C)C[C@H]1CN(C)C[C@@H]1NC(=O)c1cc(C2CC2)on1 (racemic) [compound 153, (±)-trans-5-cyclopropyl-N-[1-methyl-4-(2-methylpropyl)pyrrolidin-3-yl]-1,2-oxazole-3-carboxamide] | 39.1 µM
CC(C)C[C@H]1CN(C(C)C)C[C@@H]1NC(=O)c1cc(C2CC2)on1 (racemic) [compound 154, (±)-trans-5-cyclopropyl-N-[4-(2-methylpropyl)-1-(propan-2-yl)pyrrolidin-3-yl]-1,2-oxazole-3-carboxamide] | > 50 µM
CC[C@H]1CN(C)C[C@@H]1NC(=O)c1cc(C2CC2)on1 (racemic) [compound 157, (±)-trans-5-cyclopropyl-N-[4-ethyl-1-methyl-pyrrolidin-3-yl]-1,2-oxazole-3-carboxamide] | 45.3 µM
C[C@H]1CN(CC2CCNCC2)C[C@H]1NC(=O)c1cc(C2CC2)on1 (racemic) [compound 164, (±)-cis-5-cyclopropyl-N-[4-methyl-1-(piperidin-4-ylmethyl)pyrrolidin-3-yl]-1,2-oxazole-3-carboxamide] | 4.78 µM
C[C@@H]1CN(C2CCS(=O)(=O)CC2)C[C@@H]1NC(=O)c1cc(C2CC2)on1 (racemic) [compound 166, (±)-cis-5-cyclopropyl-N-(1-(1,1-dioxido-tetrahydro-2H-thiopyran-4-yl)-4-methylpyrrolidin-3-yl)isoxazole-3-carboxamide] | 19.8 µM
C[C@H]1CN(CCC2CCN(C(=O)OC(C)(C)C)CC2)C[C@H]1NC(=O)c1cc(C2CC2)on1 (racemic) [compound 169, (±)-cis-tert-butyl 4-{2-[3-(5-cyclopropyl-1,2-oxazole-3-amido)-4-methylpyrrolidin-1-yl]ethyl}piperidine-1-carboxylate] | 6.92 µM
C[C@@H]1CN(CC2CCOCC2)C[C@H]1NC(=O)c1cc(C2CC2)on1 (racemic) [compound 170, (±)-trans-5-cyclopropyl-N-[4-methyl-1-(oxan-4-ylmethyl)pyrrolidin-3-yl]-1,2-oxazole-3-carboxamide] | > 50 µM
C[C@H]1CN(CC2CCOCC2)C[C@H]1NC(=O)c1cc(C2CC2)on1 (racemic) [compound 175, (±)-cis-5-cyclopropyl-N-[4-methyl-1-(oxan-4-ylmethyl)pyrrolidin-3-yl]-1,2-oxazole-3-carboxamide] | 3.95 µM
CC(C)[C@H]1CN(C)C[C@@H]1NC(=O)c1cc(C2CC2)on1 (racemic) [compound 177, (±)-trans-5-cyclopropyl-N-[1-methyl-4-(propan-2-yl)pyrrolidin-3-yl]-1,2-oxazole-3-carboxamide] | > 50 µM
CC(C)[C@H]1CN(C(C)C)C[C@@H]1NC(=O)c1cc(C2CC2)on1 (racemic) [compound 178, (±)-trans-N-[1,4-bis(propan-2-yl)pyrrolidin-3-yl]-5-cyclopropyl-1,2-oxazole-3-carboxamide] | > 50 µM

More lines, now with the values ahead:

IC50 | SMILES
27.5 µM | C[C@@H]1CN(Cc2ccccc2Cl)C[C@H]1NC(=O)c1cc(C2CC2)on1 (racemic) [compound 142, (±)-trans-N-1-[(2-chlorophenyl)methyl]-4-methylpyrrolidin-3-yl]-5-cyclopropyl-1,2-oxazole-3-carboxamide]
> 50 µM | CC(C)CCN1C[C@@H](C)[C@H](NC(=O)c2cc(C3CC3)on2)C1 (racemic) [compound 143, (±)-trans-5-cyclopropyl-N-[4-methyl-1-(3-methylbutyl)pyrrolidin-3-yl]-1,2-oxazole-3-carboxamide]
37 µM | C[C@@H]1CN(Cc2ccc(N(C)C)cc2)C[C@H]1NC(=O)c1cc(C2CC2)on1 (racemic) [compound 148, (±)-trans-5-cyclopropyl-N-[1-{[4-(dimethyl-amino)phenyl]methyl}-4-methylpyrrolidin-3-yl]-1,2-oxazole-3-carboxamide]
45.6 µM | COc1ccc(CN2C[C@@H](C)[C@H](NC(=O)c3cc(C4CC4)on3)C2)cc1 (racemic) [compound 149, (±)-trans-5-cyclopropyl-N-[1-[(4-methoxy-phenyl)methyl]-4-methylpyrrolidin-3-yl]-1,2-oxazole-3-carboxamide]
> 50 µM | C[C@@H]1CN(Cc2cc3ccccc3s2)C[C@H]1NC(=O)c1cc(C2CC2)on1 (racemic) [compound 152, (±)-trans-N-[1-(1-benzothiophen-2-ylmethyl)-4-methyl-pyrrolidin-3-yl]-5-cyclopropyl-1,2-oxazole-3-carboxamide]
4.49 µM | C[C@H]1CN(CC2CCOC2)C[C@H]1NC(=O)c1cc(C2CC2)on1 (mixture of isomers) [compound 155, (±)-cis-5-cyclopropyl-N-[4-methyl-1-(oxolan-3-ylmethyl)pyrrolidin-3-yl]-1,2-oxazole-3-carboxamide]
> 50 µM | C[C@@H]1CN(CC2CCC2)C[C@H]1NC(=O)c1cc(C2CC2)on1 (racemic) [compound 156, (±)-trans-N-[1-(cyclobutyl-methyl)-4-methylpyrrolidin-3-yl]-5-cyclopropyl-1,2-oxazole-3-carboxamide]
> 50 µM | C[C@@H]1CN(CC2CCN(C)CC2)C[C@H]1NC(=O)c1cc(C2CC2)on1 (racemic) [compound 158, (±)-trans-5-cyclopropyl-N-[4-methyl-1-[(1-methylpiperidin-4-yl)methyl]pyrrolidin-3-yl]-1,2-oxazole-3-carboxamide]
> 50 µM | C[C@@H]1CN(Cc2ccnc3ccccc23)C[C@H]1NC(=O)c1cc(C2CC2)on1 (racemic) [compound 159, (±)-trans-5-cyclopropyl-N-[4-methyl-1-(quinolin-4-ylmethyl)pyrrolidin-3-yl]-1,2-oxazole-3-carboxamide]
> 50 µM | C[C@@H]1CN(Cc2c[nH]c3ccccc23)C[C@H]1NC(=O)c1cc(C2CC2)on1 (racemic) [compound 160, (±)-trans-5-cyclopropyl-N-[1-(1H-indol-3-ylmethyl)-4-methyl-pyrrolidin-3-yl]-1,2-oxazole-3-carboxamide]
> 50 µM | C[C@@H]1CN(CC2CCNC2)C[C@H]1NC(=O)c1cc(C2CC2)on1 (mixture of isomers) [compound 161, (±)-trans-5-cyclopropyl-N-[4-methyl-1-(pyrrolidin-3-ylmethyl)pyrrolidin-3-yl]-1,2-oxazole-3-carboxamide]
1.42 µM | C[C@H]1CN(CC2CC2)C[C@H]1NC(=O)c1cc(C2CC2)on1 (racemic) [compound 162, (±)-cis-5-cyclopropyl-N-[1-(cyclopropylmethyl)-4-methylpyrrolidin-3-yl]-1,2-oxazole-3-carboxamide]
> 50 µM | C[C@H]1CN(CC2CCNC2)C[C@H]1NC(=O)c1cc(C2CC2)on1 (mixture of isomers) [compound 163, (±)-cis-5-cyclopropyl-N-[4-methyl-1-(pyrrolidin-3-ylmethyl)pyrrolidin-3-yl]-1,2-oxazole-3-carboxamide]
11.3 µM | C[C@H]1CN(CC(C)(C)C)C[C@H]1NC(=O)c1cc(C2CC2)on1 (racemic) [compound 165, (±)-cis-5-cyclopropyl-N-[1-(2,2-dimethyl-propyl)-4-methylpyrrolidin-3-yl]-1,2-oxazole-3-carboxamide]
> 50 µM | C[C@@H]1CN(Cc2ccc(-c3cc(Cl)ccc3Cl)o2)C[C@H]1NC(=O)c1cc(C2CC2)on1 (racemic) [compound 171, (±)-trans-5-cyclopropyl-N-[1-{[5-(2,5-dichlorophenyl)furan-2-yl]methyl}-4-methylpyrrolidin-3-yl]-1,2-oxazole-3-carboxamide]
29.5 µM | C[C@@H]1CN(Cc2ccc(N3CCCC3)cc2)C[C@H]1NC(=O)c1cc(C2CC2)on1 (racemic) [compound 172, (±)-trans-5-cyclopropyl-N-[4-methyl-1-{[4-(pyrrolidin-1-yl)phenyl]methyl}pyrrolidin-3-yl]-1,2-oxazole-3-carboxamide]
> 50 µM | Cc1nc[nH]c1CN1C[C@@H](C)[C@H](NC(=O)c2cc(C3CC3)on2)C1 (racemic) [compound 173, (±)-trans-5-cyclopropyl-N-[4-methyl-1-[(4-methyl-1H-imidazol-5-yl)methyl]pyrrolidin-3-yl]-1,2-oxazole-3-carboxamide]
> 50 µM | COc1ncc(CN2C[C@@H](C)[C@H](NC(=O)c3cc(C4CC4)on3)C2)cc1Br (racemic) [compound 174, (±)-trans-N-[1-[(5-bromo-6-methoxypyridin-3-yl)methyl]-4-methylpyrrolidin-3-yl]-5-cyclopropyl-1,2-oxazole-3-carboxamide]
